In the experiment the target is T1, Serotonin 3 (5-HT3) receptor (Rattus norvegicus, UniProt P35563+Q9JJ16).
T1 sequence (P35563 whole entry): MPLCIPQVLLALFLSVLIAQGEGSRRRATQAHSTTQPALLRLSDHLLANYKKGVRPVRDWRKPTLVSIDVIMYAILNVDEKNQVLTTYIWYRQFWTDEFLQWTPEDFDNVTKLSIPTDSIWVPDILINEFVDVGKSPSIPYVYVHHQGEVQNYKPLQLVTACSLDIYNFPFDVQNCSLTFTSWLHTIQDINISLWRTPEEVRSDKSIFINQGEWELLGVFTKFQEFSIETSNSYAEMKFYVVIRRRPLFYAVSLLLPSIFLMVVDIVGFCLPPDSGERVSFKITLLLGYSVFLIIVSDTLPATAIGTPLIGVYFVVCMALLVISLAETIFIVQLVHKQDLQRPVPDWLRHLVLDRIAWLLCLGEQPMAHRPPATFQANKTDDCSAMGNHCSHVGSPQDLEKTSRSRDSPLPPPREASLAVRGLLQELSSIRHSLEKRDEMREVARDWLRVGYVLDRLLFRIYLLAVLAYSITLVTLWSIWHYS
T1 sequence (Q9JJ16 whole entry): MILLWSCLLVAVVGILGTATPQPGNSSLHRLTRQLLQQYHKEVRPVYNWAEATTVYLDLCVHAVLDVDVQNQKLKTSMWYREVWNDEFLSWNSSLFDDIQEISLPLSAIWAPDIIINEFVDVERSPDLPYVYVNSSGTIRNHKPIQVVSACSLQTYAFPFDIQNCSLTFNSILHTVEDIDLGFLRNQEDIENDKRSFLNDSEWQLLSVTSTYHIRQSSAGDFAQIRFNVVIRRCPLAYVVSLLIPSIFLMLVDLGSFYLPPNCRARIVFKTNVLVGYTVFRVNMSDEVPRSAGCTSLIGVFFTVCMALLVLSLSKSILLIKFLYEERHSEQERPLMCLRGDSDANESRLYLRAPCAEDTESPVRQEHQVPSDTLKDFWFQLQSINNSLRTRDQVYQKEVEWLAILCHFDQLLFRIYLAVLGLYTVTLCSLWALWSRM
The experiment in a line: Binding affinity to 5-hydroxytryptamine 3 receptor in rat entorhinal cortex using [3H]-BRL 43694 as radioligand.
`COc1cc(N)c(Cl)cc1C(=O)N[C@@H]1C[N+]2(CCl)CCC1CC2`: the Ki (as a rule, the equilibrium dissociation constant of an inhibitor or competing ligand from its target) worked out at 14.8 nM.
Molecule `Nc1ccc2c3c(cccc13)C(=O)N([C@H]1C[N+]3(CCl)CCC1CC3)C2=O` registered a Ki of 0.35 nM.
The same measure for `COc1cc(N)c(Cl)cc1C(=O)N[C@H]1C[N+]2(CCl)CCC1CC2`: 20.1 nM; for `Nc1ccc2c3c(cccc13)C(=O)N([C@@H]1C[N+]3(CCl)CCC1CC3)C2=O`: 328 nM.

The values are drawn from ChEMBL document CHEMBL1127278, “N-chloromethyl quinuclidinium derivatives: A new class of irreversible ligands for 5-HT3 receptors” (Bioorg Med Chem Lett, 1994).
